Assay results taken from patent publication US20020065227A1, “Charged compounds comprising a nucleic acid binding moiety and uses therefor” (priority 2000, published 2002).
≈ marks a conversion by molar mass, not a printed value.

Experiments:
[1] = test system: Staphylococcus aureus (29213); test: MIC, NCCLS broth microdilution; assay type: cell-based; details: Staphylococcus aureus (29213)
Bacillus cereus (11778) = test: MIC, NCCLS broth microdilution; assay type: cell-based
Esherichia coli (25922) = test: MIC, NCCLS broth microdilution; assay type: cell-based, Escherichia coli; details: Escherichia coli (25922)
[2] = test system: Candida albicans (38247) (Polyene resistant); test: MIC, antifungal assay; assay type: cell-based
[3] = test system: Staphylococcus aureus (33591) (methicillin resistant); test: MIC, NCCLS broth microdilution; assay type: cell-based; details: Staphylococcus aureus (33591), methicillin resistant (MRSA)
[4] = test system: Staphylococcus epidermidis (12228); test: MIC, NCCLS broth microdilution; assay type: cell-based; details: Staphylococcus epidermidis (12228)
[5] = test system: Enterococcus faecalis (29212); test: MIC, NCCLS broth microdilution; assay type: cell-based; details: Enterococcus faecalis (29212)
[6] = test system: Enterococcus faecium (51559) (vacomycin resistant); test: MIC, NCCLS broth microdilution; assay type: cell-based; details: Enterococcus faecium (51559), vancomycin resistant
[7] = test system: Streptococcus pneumoniae (49619); test: MIC, NCCLS broth microdilution; assay type: cell-based; details: Streptococcus pneumoniae (49619)
[8] = test system: Streptococcus pneumoniae (51422) (multiple drug resistant); test: MIC, NCCLS broth microdilution; assay type: cell-based
[9] = test system: Streptococcus pyogenes (49339); test: MIC, NCCLS broth microdilution; assay type: cell-based; details: Streptococcus pyogenes (49339); Table Ia: Streptococcus Group A(49339)
Micrococcus luteus (381) = test: MIC, NCCLS broth microdilution; assay type: cell-based
[10] = test system: Corynebacterium Group A (49676); test: MIC, NCCLS broth microdilution; assay type: cell-based; details: Corynebacterium Group A (49676)
[11] = test system: Pseudomona aeruginosa (27853); test: MIC, NCCLS broth microdilution; assay type: cell-based; details: Pseudomona aeruginosa (27853)
[12] = test system: Haemophilus influenzae (49247); test: MIC, NCCLS broth microdilution; assay type: cell-based; details: Haemophilus influenzae (49247)
Candida albicans (90028) = test: MIC, antifungal assay; assay type: cell-based
[13] = test system: Candida parapsilosis (10232); test: MIC, antifungal assay; assay type: cell-based; details: Candida parapsilosis (10232)
[14] = test system: Cryptococcus neoformans (90112); test: MIC, antifungal assay; assay type: cell-based; details: Cryptococcus neoformans (90112)
AGTACT = test: DNase I footprint titration, AGTACT site; assay type: binding; details: equilibrium association constant Ka; pH 7.0, 22° C.
ACTACT = test: DNase I footprint titration, ACTACT site; assay type: binding; details: equilibrium association constant Ka; pH 7.0, 22° C.
ATTACT = test: DNase I footprint titration, ATTACT site; assay type: binding; details: equilibrium association constant Ka; pH 7.0, 22° C.
AATACT = test: DNase I footprint titration, AATACT site; assay type: binding; details: equilibrium association constant Ka; pH 7.0, 22° C.

How did the MIC [1] turn out when `CN=C(N)CCNC(=O)c1cc(NC(=O)c2cc(NC(=O)c3cc(NC(=O)c4nsc(Cl)c4Cl)cn3C)cn2C)cn1C` [V-pp] was run?
The MIC was 0.5 mg/L (≈ 0.772 µM).

And the MIC (Bacillus cereus (11778); Bacillus cereus (11778))?
The MIC was 0.5 mg/L (≈ 0.772 µM).

And the MIC (Esherichia coli (25922))?
Its MIC is 32 mg/L (≈ 49.4 µM).

What about the MIC [2] of the same compound?
Its MIC is 4 mg/L (≈ 6.18 µM).

What does the source list for `CN(C)CCCNC(=O)c1cc(NC(=O)c2cc(NC(=O)c3cc(NC(=O)c4nsc(NCCCN(C)C)c4Cl)cn3C)cn2C)cn1C` [V-q]?
MIC [1]: 8 to 16 mg/L; MIC [3]: 16 mg/L (≈ 22.4 µM); MIC [4]: 4 mg/L (≈ 5.6 µM); MIC [5]: 1 mg/L (≈ 1.4 µM); MIC [6]: 4 mg/L (≈ 5.6 µM); MIC [7]: 2 mg/L (≈ 2.8 µM); MIC [8]: 4 mg/L (≈ 5.6 µM); MIC [9]: 1 mg/L (≈ 1.4 µM); MIC (Bacillus cereus (11778); Bacillus cereus (11778)): 4 to 8 mg/L; MIC (Micrococcus luteus (381)): 8 mg/L (≈ 11.2 µM); MIC [10]: 1 mg/L (≈ 1.4 µM); MIC (Esherichia coli (25922)): >128 mg/L; MIC [11]: >128 mg/L

Which MIC [1] does the source give for `Cn1cc(NC(=O)c2cc(NC(=O)c3cc(NC(=O)c4nsc(NCCN)c4Cl)cn3C)cn2C)cc1C(=O)NCCC1=NCCN1` [V-qq] here?
Its MIC is 0.25 mg/L (≈ 0.366 µM).

What about the MIC (Bacillus cereus (11778); Bacillus cereus (11778)) of the same compound?
The MIC was 0.25 mg/L (≈ 0.366 µM).

And the MIC (Esherichia coli (25922))?
Its MIC is 32 mg/L (≈ 46.8 µM).

What about the MIC [2] of the same compound?
The MIC was 32 mg/L (≈ 46.8 µM).

How did the MIC [1] turn out when `CCN(CC)CCNC(=O)CCNC(=O)c1cc(NC(=O)c2cc(NC(=O)c3nsc(NCCN(CC)CC)c3Cl)cn2C)cn1C` [V-r] was run?
Its MIC is greater than 128 mg/L.

And the MIC [5]?
The MIC was 16 mg/L (≈ 23.1 µM).

What about the MIC [7] of the same compound?
Its MIC is 16 mg/L (≈ 23.1 µM).

What about the MIC (Bacillus cereus (11778); Bacillus cereus (11778)) of the same compound?
Its MIC is greater than 128 mg/L.

What about the MIC [12] of the same compound?
Its MIC is greater than 128 mg/L.

What about the MIC (Esherichia coli (25922)) of the same compound?
The MIC was greater than 128 mg/L.

And the MIC (Candida albicans (90028))?
The MIC was greater than 128 mg/L.

And the MIC [2]?
The MIC was greater than 128 mg/L.

What about the MIC [13] of the same compound?
The MIC was 2 mg/L (≈ 2.89 µM).

And the MIC [14]?
Its MIC is 16 mg/L (≈ 23.1 µM).

Which results are given for `COCCCNc1snc(C(=O)Nc2cc(C(=O)Nc3cc(C(=O)Nc4cc(C(=O)NCCN5CCOCC5)n(C)c4)n(C)c3)n(C)c2)c1Cl` [V-rr]?
MIC [1]: 1 mg/L (≈ 1.37 µM); MIC (Bacillus cereus (11778); Bacillus cereus (11778)): 0.5 mg/L (≈ 0.686 µM); MIC (Esherichia coli (25922)): 32 mg/L (≈ 43.9 µM); MIC [2]: 32 mg/L (≈ 43.9 µM)

Which results are given for `Cn1cc(NC(=O)c2cc(NC(=O)c3cc(NC(=O)c4nsc(NCC5CC5)c4Cl)cn3C)cn2C)cc1C(=O)NCCN1CCOCC1` [V-tt]?
MIC [1]: 0.5 mg/L (≈ 0.703 µM); MIC (Bacillus cereus (11778); Bacillus cereus (11778)): 0.25 mg/L (≈ 0.351 µM); MIC (Esherichia coli (25922)): 32 mg/L (≈ 45 µM); MIC [2]: 32 mg/L (≈ 45 µM)

For `CN(C)CCCNC(=O)CCNC(=O)c1cc(NC(=O)c2cc(NC(=O)c3cc(NC(=O)c4nsc(Cl)c4Cl)cn3C)cn2C)cn1C` [V-u], which “Binding Constant, sequence AGTACT” value (AGTACT) is on record?
Its value is 1e+11 M⁻¹.

And the “Binding Constant, sequence ACTACT” value (ACTACT)?
The value was 1e+09 M⁻¹.

What about the “Binding Constant, sequence ATTACT” value (ATTACT) of the same compound?
Its value is 5e+08 M⁻¹.

What about the “Binding Constant, sequence AATACT” value (AATACT) of the same compound?
The value was 1e+08 M⁻¹.

For `Cn1cc(NC(=O)c2cc(NC(=O)c3cc(NC(=O)c4nsc(Cl)c4Cl)cn3C)cn2C)cc1C(=O)NCCC1=NCCN1` [V-uu], which MIC [1] is on record?
The MIC was 0.25 mg/L (≈ 0.379 µM).

What about the MIC (Bacillus cereus (11778); Bacillus cereus (11778)) of the same compound?
The MIC was 1 mg/L (≈ 1.52 µM).

For `CN(C)CCCNC(=O)c1cc(NC(=O)c2cc(NC(=O)c3cc(NC(=O)c4nsc(N5CCCCC5)c4Cl)cn3C)cn2C)cn1C` [V-w], which MIC (Bacillus cereus (11778); Bacillus cereus, strain not stated) is on record?
Its MIC is 0.5 mg/L (≈ 0.717 µM).

How did the “Binding Constant, sequence AGTACT” value (AGTACT) turn out when `CN(C)CCCNC(=O)CCNC(=O)c1cc(NC(=O)c2cc(NC(=O)c3cc(NC(=O)c4nc(NC(=O)CCCNC(=O)c5cc(NC(=O)c6cc(NC(=O)c7cc(NC(=O)c8nsc(Cl)c8Cl)cn7C)cn6C)cn5C)cn4C)cn3C)cn2C)cn1C` [VI-a] was run?
Its value is 2e+10 M⁻¹.

What about the “Binding Constant, sequence ACTACT” value (ACTACT) of the same compound?
The value was 2e+09 M⁻¹.

And the “Binding Constant, sequence ATTACT” value (ATTACT)?
The value was 2e+09 M⁻¹.

What about the “Binding Constant, sequence AATACT” value (AATACT) of the same compound?
Its value is 2e+09 M⁻¹.

Which “Binding Constant, sequence AGTACT” value (AGTACT) does the source give for `CN(C)CCCNC(=O)CCNC(=O)c1cc(NC(=O)c2cc(NC(=O)c3cc(NC(=O)c4nc(NC(=O)CCCNC(=O)c5cc(NC(=O)c6cc(NC(=O)c7cc(NC(=O)c8nsc(NCCCN(C)C)c8Cl)cn7C)cn6C)cn5C)cn4C)cn3C)cn2C)cn1C` [VI-b] here?
The value was 1e+11 M⁻¹.

And the “Binding Constant, sequence ACTACT” value (ACTACT)?
Its value is 7e+09 M⁻¹.

What about the “Binding Constant, sequence ATTACT” value (ATTACT) of the same compound?
The value was 7e+09 M⁻¹.

What about the “Binding Constant, sequence AATACT” value (AATACT) of the same compound?
The value was 7e+09 M⁻¹.
